Values joined by “and” are separate entries in the source; they are usually repeats but may differ in a detail not shown here. Identical values can stand only once. “Also recorded” adds a separate entry of the source.
Key:
[1] = In vitro microsomal metabolic stability, CD-1 mouse liver microsomes; type: in vitro ADME; conditions: for CLint scaled at 1 µM / microsomal CLint at 1 µM: CD-1, mouse, mouse liver microsomes, pH 7.2; for half-life at 1 µM: CD-1, pH 7.2, 0.5 mg/ml protein, NADPH; for half-life at 1 µM / Remaining (T = 60 min) / Remaining (T = NCF60 min): Mouse liver microsomes; for Remaining (T = 60 min): with NADPH; for Remaining (T = NCF60 min): without NADPH regenerating system; for Remaining (T = 60 min) / Remaining (T = NCF60 min): 60 min
Summary of the method: (§1)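 Compounds at 1 μM incubated at 37° C with pooled CD-1 mouse or human liver microsomes (0.5 mg/mL protein) plus NADPH regenerating system in 50 mM potassium phosphate, pH 7.2, 3.3 mM MgCl2; sampled at 0–60 min, 60-min no-NADPH control. Parent loss by LC/MS/MS analyte/IS peak-area ratio, n=1.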

[2] = system: S6K1 (Thr389) phosphorylation (mTORC1 activity) in wild-type (WT) 293T cells; experiment: Inhibition of S6K1 (Thr389) phosphorylation in wild-type 293T cells (ELISA); type: cell-based, human; conditions: for extent of inhibition of S6K1 (Thr389) phosphorylation: with increasing concentrations
Summary of the method: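 WT 293T cells in DMEM + 10% FBS, grown 24 h to ~80% confluence, then treated 2 h at 37 °C in duplicate with compounds over an 8–11-point range from 0.001 pM to 10 μM. DMSO vehicle served as negative control. Phospho-S6K1 (Thr389) measured by ELISA.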

[3] = In vitro microsomal metabolic stability, human liver microsomes; type: in vitro ADME; conditions: for Remaining (T = 60 min) / Remaining (T = NCF60 min) / half-life at 1 µM: Human liver microsomes; for Remaining (T = 60 min): with NADPH; for Remaining (T = NCF60 min): without NADPH regenerating system; for Remaining (T = 60 min) / Remaining (T = NCF60 min): 60 min; for CLint scaled at 1 µM / microsomal CLint at 1 µM: human, human liver microsomes; for CLint scaled at 1 µM / microsomal CLint at 1 µM / half-life at 1 µM: pH 7.2; for half-life at 1 µM: 0.5 mg/ml protein, NADPH
Summary of the method: as §1

[4] = system: S6K1 (Thr389) phosphorylation (mTORC1 activity) in FKBP12 knock-out 293T cells; experiment: Inhibition of S6K1 (Thr389) phosphorylation in FKBP12 knock-out 293T cells (ELISA); type: cell-based, human
Summary of the method: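 CRISPR-generated FKBP12 knock-out HEK293T cells, alongside wild-type, were treated in duplicate for 2 hours at 37 °C with an 8–11-point dose range (0.001 pM–10 μM). Phospho-S6K1 Thr389 quantified by ELISA as an mTORC1 activity read-out, with DMSO as negative control.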

| Compound | CLint scaled at 1 µM [1] [mL/min/kg] | microsomal CLint at 1 µM [1] [µL/min/mg] | half-life at 1 µM [1] [min] | Remaining (T = 60 min) [1] [%] | Remaining (T = NCF60 min) [1] [%] | extent of inhibition of S6K1 (Thr389) phosphorylation ([2]; wild-type cells) | Remaining (T = 60 min) [3] [%] | Remaining (T = NCF60 min) [3] [%] | CLint scaled at 1 µM [3] [mL/min/kg] | microsomal CLint at 1 µM [3] [µL/min/mg] | half-life at 1 µM [3] [min] | further results |
| --- | --- | --- | --- | --- | --- | --- | --- | --- | --- | --- | --- | --- |
| COCCN(c1ccccc1)C1C[C@@H]2CC[C@@H](C)[C@@](O)(O2)C(=O)C(=O)N2CCCC[C@H]2C(=O)OC([C@H](C)CC2CC[C@@H](O)C(OC)C2)CC[C@H](C)/C=C(\C)C(O)C(OC)C(=O)[C@H](C)C[C@H](C)/C=C/C=C/C=C/1C (stereo partly drawn) [Compound 69, (3S,6S,7E,9R,10R,12R,14S,15E,17E,19E,23S,26R,27R,34aS)-9,27-dihydroxy-3-((R)-1-((1S,3R,4R)-4-hydroxy-3-methoxycyclohexyl)propan-2-yl)-10-methoxy-21-((2-methoxyethyl)(phenyl)amino)-6,8,12,14,20,26-hexamethyl-5,6,9,10,12,13,14,21,22,23,24,25,26,27,32,33,34,34a-octadecahydro-3H-23,27-epoxypyrido[2,1-c][1]oxa[4]azacyclohentriacontine-1,11,28,29(4H,31H)-tetraone] | 11.1 | 2.81 | 492 | 113 | 99.6 | near complete inhibition | 63.3 | 115 | 25.5 | 28.3 | 49 | IC50 ([2]; Homo sapiens, HEK-293T, 2 h, wild-type 293T cells, 2 hours treatment): 1.53 nM; fold lower potency compared with RAD001 (by IC50) ([2]; wild-type cells): 4 fold; fold less potent compared with RAD001 ([4]; FKBP12 knock-out cells, at similar level of inhibition): about 3000 fold; inhibition at 10 µM ([4]; Homo sapiens, HEK-293T, FKBP12 knock-out cells, 10 μM (highest tested concentration)): ~30%; selectivity for FKBP12 compared with RAD001 (in words) ([4]; wild-type versus FKBP12 knock-out cells): more selective than RAD001 |
| CO[C@H]1C[C@@H]2CC[C@@H](C)[C@@](O)(O2)C(=O)C(=O)N2CCCC[C@H]2C(=O)O[C@H]([C@H](C)C[C@@H]2CC[C@@H](OCCO)[C@H](OC)C2)CC(=O)[C@H](C)/C=C(\C)[C@@H](O)[C@@H](OC)C(=O)[C@H](C)C[C@H](C)/C=C/C=C/C=C/1C [RAD001, everolimus, reference compound] | 76.9 | 19.4 | 71.3 | 56 | 126 | completely inhibit; also recorded: near complete inhibition | 2.10 | 120 | 112 | 124 | 11.1 | S6K1 inhibition achieved ([4]; FKBP12 knock-out 293T cells, concentration not given): about 50%; concentration achieving 30% inhibition of S6K1 (Thr389) phosphorylation ([4]; FKBP12 knock-out cells): ~3.0 nM; concentration achieving ~40% of S6K1 (Thr389) inhibition ([4]; FKBP12 knock-out cells): 447 nM; inhibition of S6K1 (Thr389) phosphorylation in the absence of FKBP12 (in words) ([4]; FKBP12 knock-out cells): inhibited the mTORC1 signaling in a dose dependent manner; inhibition of S6K1 phosphorylation ([4]; FKBP12 knock-out cells, 100 nM, 0.1 µM): ~35%; inhibition of S6K1 (Thr389) phosphorylation ([4]; FKBP12 knock-out cells, 10 μM (highest tested concentration), 10 µM): ~80% and ~70% and 42% and 45% and 58% and 73.5% and 62% and ~60%; inhibition at 0.1 µM ([4]; Homo sapiens, HEK-293T, FKBP12 knock-out cells, 100 nM): ~30%; IC50 ([4]; Homo sapiens, HEK-293T, FKBP12 knock-out 293T cells): 31.3 nM |
